Consider two compounds from PubChem BioAssay AID1963976 (Molecular Pharmacology Branch, DTP, NCI, 2024).

This assay deals with 435261-313-R-J1-PDC tumor spheroid viability. Nature of the assay: Anticancer human tumor 435261-313-R-J1-PDC patient-derived colon adenocarcinoma cell line growth inhibition [PI3K]. The following applies: spheroids with HUVEC and MSC; for viability, T/C: stronger effect = lower value. The source says:
Combinatorial screen of targeted agents with the PI3K inhibitors inavolisib, alpelisib, duvelisib, and copanlisib in multi-cell type tumor spheroids
A high-throughput screen of multi-cell type tumor spheroids was designed to identify active combinations of targeted small molecules and PI3K pathway inhibitors. Complex spheroids include a stromal component modeled by human endothelial cells (HUVEC) and fibroblasts modeled by human mesenchymal stem cells (MSCs). The concentration ranges selected for each drug and investigational agent were based upon clinically achievable concentrations if the clinical Cmax of the agent was known.
Compounds. The drugs and investigational agents: inavolisib (NSC800729), alpelisib (NSC765974), duvelisib (NSC772469), copanlisib (NSC816437), ipatasertib (NSC767898), afuresertib (NSC778305), talazoparib (NSC767125), sapanisertib (NSC764658), selumetinib (NSC741078), tovorafenib (DAY101, NSC766906), vemurafenib (NSC761431), ravoxertinib (NSC781343), sotorasib (NSC818433), MRTX1133 (NSC 836407), abemaciclib (NSC 768073), palbociclib (NSC758247), venetoclax (NSC 766270), SY5609 (NSC837396), enzalutamide (NSC755605), and darolutamide (NSC825331), were obtained from the National Cancer Institute (NCI) Developmental Therapeutics Program Chemical Repository. The FDA-approved anticancer drug set is available from the NCI Developmental Therapeutics Program. […] The stock solutions were prepared in dimethyl sulfoxide (DMSO, Sigma-Aldrich, St. Louis, MO, cat. D2650) at 800-fold the tested concentration and stored at -70 degrees C prior to their use. All drugs and investigational agents were tested over a range starting from a high concentration at or near the clinical Cmax and decreasing in half-log increments. If the clinical Cmax for an agent had not been determined, the highest concentration tested was 10 microM.
Cell Culture. All cells were maintained in an incubator at 37 degrees C and 5% CO2 with 95% humidity. The PDC lines were cultured according to standard operating procedures established by the NCI PDMR (https://pdmr.cancer.gov/sops/default.htm). All PDCs were thawed and cultured in Matrigel-coated flasks prepared with a working solution of 1X Ham's F-12 nutrient mix, without supplementation (Invitrogen, Waltham, MA, cat. 11765054), 100 U/mL penicillin-streptomycin (Invitrogen, cat. 15140122), and 2.5% Matrigel (Corning Inc., Corning, NY, cat. 354248) for the first three passages. The 354836-022-R-J1-PDC, 475296-252-R-J1-PDC, and 997726-040-R-J2-PDC lines were cultured in 6A media, which includes advanced DMEM/F-12 (Thermo Fisher Scientific, cat. 12634028), 10 mM HEPES (Thermo Fisher Scientific, cat. 15630080), 1X GlutaMAX supplement (Thermo Fisher Scientific, cat. 35050061), 0.1 mg/mL primocin (InvivoGen, San Diego, CA, cat. ant-pm-2), 10% defined fetal bovine serum, heat inactivated (HyClone Laboratories Inc., Logan, UT, cat. SH30070.03HI), 50% L-WRN conditioned media (ATCC, cat. CRL-3276), 1.25 mM N-Acetyl-L-cysteine (Sigma-Aldrich, cat. A9165), 10 mM nicotinamide (Sigma-Aldrich, cat. N0636), 1X B-27 supplement (Thermo Fisher Scientific, cat. 17504044), 1X N-2 supplement (Thermo Fisher Scientific, cat. 17502048), and 10 microM Y-27632 dihydrochloride (Tocris Bioscience, Bristol, United Kingdom, cat. 1254). The 624824-186-R-J2-PDC line was cultured in 6C/Colon 1B media, which includes all 6A media components plus 50 ng/mL human EGF recombinant protein (Thermo Fisher Scientific, cat. PHG0311). […]
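Further: spheroids exposed to compounds for 7 days.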

Broadly, the viability, T/C is the result in the treated group divided by that in the control group, in per cent. The IC50 is the midpoint of a concentration-inhibition curve. Consider `CNC(=O)c1ccc(N2C(=S)N(c3ccc(C#N)c(C(F)(F)F)c3)C(=O)C2(C)C)cc1F`, for which the viability, T/C (compound 3.16 µM) is 106% [middle of 4 runs]. Further, where the note is “curve of compound”, the IC50 was greater than 10000 nM.
Regarding `Cn1cnc2c(F)c(Nc3ccc(Br)cc3Cl)c(C(=O)NOCCO)cc21` + CC(Nc1ccc2c(c1)OCCn1cc(N3C(=O)OCC3C(F)F)nc1-2)C(N)=O, the IC50 runs as follows: (curve of first compound, second compound 0.00316 µM) less than 9.49 nM; (curve of first compound, second compound 0.01 µM) less than 9.49 nM; (curve of first compound, second compound 0.0316 µM) less than 9.49 nM; (curve of first compound, second compound 0.1 µM) less than 9.49 nM; (curve of first compound, second compound 0.316 µM) less than 9.49 nM; (curve of first compound, second compound 1 µM) less than 9.49 nM. Besides, the viability, T/C (second compound 0.00316 µM, first compound 0.00949 µM) was 28.1%; the viability, T/C (second compound 0.00316 µM, first compound 0.03 µM) is 22.7%; the viability, T/C (second compound 0.00316 µM, first compound 0.0949 µM) was 14.8%; the viability, T/C (second compound 0.00316 µM, first compound 0.3 µM) is 15.4%; the viability, T/C (second compound 0.00316 µM, first compound 0.949 µM) was 16.1%; the viability, T/C (second compound 0.00316 µM, first compound 3 µM) is 11%. The viability, T/C was 25.1% (second compound 0.01 µM, first compound 0.00949 µM); 24.3% (second compound 0.01 µM, first compound 0.03 µM); 16.8% (second compound 0.01 µM, first compound 0.0949 µM); 16.2% (second compound 0.01 µM, first compound 0.3 µM); 16.1% (second compound 0.01 µM, first compound 0.949 µM); 11.5% (second compound 0.01 µM, first compound 3 µM). The viability, T/C is, setting by setting: (second compound 0.0316 µM, first compound 0.00949 µM) 25.9%; (second compound 0.0316 µM, first compound 0.03 µM) 23.4%; (second compound 0.0316 µM, first compound 0.0949 µM) 15.4%; (second compound 0.0316 µM, first compound 0.3 µM) 14.8%; (second compound 0.0316 µM, first compound 0.949 µM) 12.2%; (second compound 0.0316 µM, first compound 3 µM) 6.61%. The viability, T/C by setting is: (second compound 0.1 µM, first compound 0.00949 µM) 21.4%; (second compound 0.1 µM, first compound 0.03 µM) 12.5%; (second compound 0.1 µM, first compound 0.0949 µM) 13.1%; (second compound 0.1 µM, first compound 0.3 µM) 11.7%; (second compound 0.1 µM, first compound 0.949 µM) 10.7%; (second compound 0.1 µM, first compound 3 µM) 6.55%. The viability, T/C by setting is: (second compound 0.316 µM, first compound 0.00949 µM) 12%; (second compound 0.316 µM, first compound 0.03 µM) 12.2%; (second compound 0.316 µM, first compound 0.0949 µM) 4.89%; (second compound 0.316 µM, first compound 0.3 µM) 8.13%; (second compound 0.316 µM, first compound 0.949 µM) 7.5%; (second compound 0.316 µM, first compound 3 µM) 2.69%. For the same compound, the viability, T/C (second compound 1 µM, first compound 0.00949 µM) was 11.9%; the viability, T/C (second compound 1 µM, first compound 0.03 µM) is 9.34%; the viability, T/C (second compound 1 µM, first compound 0.0949 µM) was 5.53%; the viability, T/C (second compound 1 µM, first compound 0.3 µM) was 6.3%; the viability, T/C (second compound 1 µM, first compound 0.949 µM) is 4.59%; the viability, T/C (second compound 1 µM, first compound 3 µM) was 0.73%.
